# Experimental data from patent US20140011977A1, “CHIMERIC MOLECULES TO MODULATE GENE EXPRESSION” (Cold Spring Harbor Laboratory, priority 2000, published 2014).
# Assays:
# SMN1 pre-mRNA exon 7 = assay: S100 extract complementation in vitro splicing, SMN1 pre-mRNA; type: biochemical, human; settings: S100 extract complemented with 4 pmol recombinant SR protein, 4 hours
# Experimental: (§1) Finally, splicing of SNM1 and SMN2 pre-mRNAs in S100-complementation experiments was used to test the SR protein specificity of the ESEs. S100 extract is a post-nuclear, post-ribosomal fraction capable of supporting in vitro splicing only when complemented with one or more SR proteins. When the SMN pre-mRNAs were incubated in S100 extract alone, spliced products were barely detectable (FIG. 17b, lanes 5-8).
# (§2) 5′ capped, T7 runoff transcripts from purified PCR products were uniformly labeled with [α-^32P] UTP, purified by denaturing PAGE, and spliced in HeLa cell nuclear or S100 extracts, as described. Briefly, 10 fmol of transcript was incubated in 12.5-μl standard splicing reactions containing 3 μl of nuclear extract or 2 μl of S100 extract complemented with 4 pmol of recombinant SC35 or SF2/ASF. The MgCl2 concentration was 2.4 mM for BRCA1 transcripts and 1.6 mM for SMN transcripts. After incubation at 30° C. for 4 hours, RNA was extracted and analyzed on 12% (BRCA1) or 8% (SMN) denaturing polyacrylamide gels, followed by autoradiography and phosphorimager analysis. Exon inclusion was calculated as a percentage of the total amount of spliced mRNAs, i.e., included mRNA×100/(included mRNA+skipped mRNA).
# SMN2 pre-mRNA exon 7 = assay: S100 extract complementation in vitro splicing, SMN2 pre-mRNA; type: biochemical, human
# Experimental: as §1, §2
# β-globin pre-mRNA = assay: S100 extract complementation with β-globin pre-mRNA; type: biochemical; settings: data not shown
Molecule,"exon 7 inclusion, SMN1 pre-mRNA (SMN1 pre-mRNA exon 7)","exon 7 inclusion, SMN2 pre-mRNA (SMN2 pre-mRNA exon 7; S100 extract complemented with 4 pmol recombinant SR protein, 4 hours)","exon 7 inclusion, SMN2 context, high concentrations of SR protein (SMN2 pre-mRNA exon 7; S100 extract, high concentrations, data not shown)",complementation of S100 extract (β-globin pre-mRNA)
SF2/ASF: recombinant human SR protein SF2/ASF used to complement S100 extract,promoted exon 7 inclusion,much less efficiently,promoted significant inclusion,–
"SC35: recombinant human SR protein SC35 used to complement S100 extract (protein, UniProt Q01130 2-221, looked up) Serine/arginine-rich splicing …: SYGRPPPDVEGMTSLKVDNLTYRTSPDTLRRVFEKYGRVGDVYIPRDRYTKESRGFAFVRFHDKRDAEDAMDAMDGAVLDGRELRVQMARYGRPPDSHHSRRGPPPRRYGGGGYGRRSRSPRRRRRSRSRSRSRSRSRSRSRYSRSKSRSRTRSRSRSTSKSRSARRSKSKSSSVSRSRSRSRSRSRSRSPPPVSKRESKSRSRSKSPPKSPEEEGAVSS",failed to drive exon 7 inclusion,–,–,efficiently complemented S100 extract
